# Laboratory results as given in patent US20250382269A1 (CFD Research Corporation, priority 2019, published 2025).
# “And” between values parts separate entries of the source, which are not always exact repeats. Equal entries are not always repeated. Where two headings read alike, the source gives them in different places.
# Assays:
# Neisseria gonorrhoeae = assay: microbe, parasite or virus in culture; format: cell-based
# HepaRG cells = assay: Cytotoxicity MTT assay in HepaRG cells; format: cell-based, human; conditions: 48 h
# Protocol: (§1) Additionally, the antimicrobial compounds were analyzed for cytotoxicity. […] We utilized the standard MTT assay (Promega CellTiter 96) and GraphPad Prism 7 software to determine EC50 values for each analogue. Briefly, 20,000 HepG2 cells in 200 μl of the ATCC recommended media were seeded in each well of a 96-well plate with a moisture barrier created in the outermost wells. The cells were allowed to attach overnight at 37° C., and then observed under phase contrast microscopy for proper morphological characteristics. If cells appeared healthy and attached, test compounds were added in 7 concentrations from […] (n=3) from freshly prepared DMSO stock plates. […] Once incubations were complete, the spectrophotometric absorbance of the samples was measured at a wavelength of 595 nm. […] For the HepaRG assay, NoSpin HepaRG™ cells (Lonza, cat #NSHPRG) were thawed and plated with 20,000 cells per well. They were allowed to attach for 4 h (optimal DME profile per Lonza's testing) before dosing following the identical protocol as above.
# [1] = system: B. subtilis / cytotoxicity EC50; assay: Selectivity index (SI) using B. subtilis MICs
# Protocol: as §1
# Candida glabrata = assay: MIC/MFC against Candida glabrata strains; format: cell-based; conditions: Nakaseomyces glabratus; #584
# [2] = Toxicity study in mice, body weight over 7 days; format: in vivo, Balb/c mice
# Excerpt: The vehicle is 40% PEG300 solution in 0.9% NaCl. […] Thus, the compounds are useful for in vivo antimicrobial administration.
# [3] = system: S. aureus cell wall synthesis; assay: Macromolecular synthesis assay (glucosamine incorporation into cell wall); format: cell-based; conditions: dose-response, FIG. 2A-2B
# [4] = system: branched chain amino acid synthesis pathway (ILVB); assay: RNA sequencing / transcriptomic and metabolic mechanism of action studies
# [5] = MIC with and without 2-ketobutyrate (synergy); format: cell-based
# [6] = ATCC49226, read-out: Neisseria gonorrhoeae ATCC 49226 MIC, strain ATCC 49226
# [7] = read-out: Neisseria gonorrhoeae WHO 901 MIC, strain WHO 901
# [8] = read-out: Neisseria gonorrhoeae WHO 914 MIC, strain WHO 914
smiles,measurement,setting,value
CC(c1ccccc1)c1c[nH]c2ccc(F)cc12 (stereo not drawn),MIC,Neisseria gonorrhoeae; [6],8 mg/L
same,MIC,Neisseria gonorrhoeae; [7],4 mg/L
same,MIC,Neisseria gonorrhoeae; [8],8 mg/L
Cc1ccccc1Oc1c[nH]c2ccc(F)cc12,MIC,Neisseria gonorrhoeae; [6],8 mg/L
same,MIC,Neisseria gonorrhoeae; [7],4 mg/L
same,MIC,Neisseria gonorrhoeae; [8],8 mg/L
Cc1cccc(Cc2c[nH]c3ccc(F)cc23)c1,MIC,Neisseria gonorrhoeae; [6],8 mg/L
same,MIC,Neisseria gonorrhoeae; [7],8 mg/L
same,MIC,Neisseria gonorrhoeae; [8],> 8 mg/L
Fc1ccc2[nH]cc(Cc3ccccc3F)c2c1,MIC,Neisseria gonorrhoeae; [6],8 mg/L
same,MIC,Neisseria gonorrhoeae; [7],8 mg/L
same,MIC,Neisseria gonorrhoeae; [8],> 8 mg/L
Fc1ccc2[nH]cc(Cc3ccc(Br)cc3)c2c1 [3-(4 bromobenzyl)-5-fluoro-1H-indole],MIC,Neisseria gonorrhoeae; [6],4 mg/L
Brc1ccc(Oc2c[nH]c3ccccc23)cc1 [3-(4-bromophenoxy)-1H-indole],MIC,Neisseria gonorrhoeae; [6],> 8 mg/L
same,MIC,Neisseria gonorrhoeae; [7],4 mg/L
same,MIC,Neisseria gonorrhoeae; [8],> 8 mg/L
c1ccc(Oc2c[nH]c3ccccc23)cc1 [3-phenoxy-1H-indole],MIC,Neisseria gonorrhoeae; [6],> 8 mg/L
same,MIC,Neisseria gonorrhoeae; [7],> 8 mg/L
same,MIC,Neisseria gonorrhoeae; [8],> 8 mg/L
Brc1ccc2[nH]cc(Oc3ccccc3)c2c1 [5 bromo-3-phenoxy-1H-indole],MIC,Neisseria gonorrhoeae; [6],8 mg/L
same,MIC,Neisseria gonorrhoeae; [7],4 mg/L
same,MIC,Neisseria gonorrhoeae; [8],8 mg/L
Brc1ccc(Oc2c[nH]c3ccc(Br)cc23)cc1 [5-bromo-3-(4-bromophenoxy)-1H-indole],MIC,Neisseria gonorrhoeae; [6],4 mg/L
same,MIC,Neisseria gonorrhoeae; [7],2 mg/L
same,MIC,Neisseria gonorrhoeae; [8],4 mg/L
"Oc1ccc(Sc2c[nH]c3ccccc23)cc1 [Compound 156I, 4-((1H-indol-3-yl)thio)phenol]",Cytotoxicity HepaRG EC50,HepaRG cells,>20 mg/L
"Brc1ccc(Sc2c[nH]c3ccccc23)cc1 [Compound 156K, 3-((4-bromophenyl)thio)-1H-indole]",Cytotoxicity HepaRG EC50,HepaRG cells,32 mg/L
"COc1ccc2[nH]cc(Sc3ccc(Br)cc3)c2c1 [Compound 172E, 3-((4-bromophenyl)thio)-5-methoxy-1H-indole]",SI (selectivity index),[1],14.9
"Clc1c(Cl)c(Cl)c(Sc2c[nH]c3ccc(Br)cc23)c(Cl)c1Cl [Compound 174AD, 5-bromo-3-((perchlorophenyl)thio)-1H-indole]",MIC,Candida glabrata,> 50 mg/L
"Cc1[nH]c2ccc(Br)cc2c1Sc1ccccc1Br [Compound 174AZ, 5-bromo-3-((2-bromophenyl)thio)-2-methyl-1H-indole]",toxicity in mice (body weight over 7 days),"[2]; 6-week-old Balb/c mice, vehicle 40% PEG300 in 0.9% NaCl",did not have significant toxicity
same,Animal body weight,"[2]; IP 0.1 mg/kg, Day 0, individual animals, 0.1 mg/kg",0.023 kg (2×) and 0.025 kg
same,Animal body weight,"[2]; IP 0.1 mg/kg, Day 1, individual animals, 0.1 mg/kg",0.022 kg and 0.024 kg and 0.023 kg
same,Animal body weight,"[2]; IP 0.1 mg/kg, Day 2, individual animals, 0.1 mg/kg",0.022 kg and 0.025 kg and 0.023 kg
same,Animal body weight,"[2]; IP 0.1 mg/kg, Day 3, individual animals, 0.1 mg/kg",0.022 kg and 0.025 kg and 0.023 kg
same,Animal body weight,"[2]; IP 0.1 mg/kg, Day 4, individual animals, 0.1 mg/kg",0.023 kg (2×) and 0.025 kg
same,Animal body weight,"[2]; IP 0.1 mg/kg, Day 5, individual animals, 0.1 mg/kg",0.022 kg and 0.025 kg and 0.023 kg
same,Animal body weight,"[2]; IP 0.1 mg/kg, Day 6, individual animals, 0.1 mg/kg",0.022 kg and 0.025 kg and 0.023 kg
same,Animal body weight,"[2]; IP 0.1 mg/kg, Day 7, individual animals, 0.1 mg/kg",0.022 kg (2×) and 0.025 kg
same,Animal body weight,"[2]; IP 1 mg/kg, Day 0, individual animals, 1 mg/kg",0.024 kg (2×) and 0.025 kg
same,Animal body weight,"[2]; IP 1 mg/kg, Day 1, individual animals, 1 mg/kg",0.023 kg and 0.024 kg (2×)
same,Animal body weight,"[2]; IP 1 mg/kg, Day 2, individual animals",0.024 kg
same,Animal body weight,"[2]; IP 1 mg/kg, Day 3, individual animals, 1 mg/kg",0.025 kg and 0.024 kg (2×)
same,Animal body weight,"[2]; IP 1 mg/kg, Day 4, individual animals, 1 mg/kg",0.025 kg (2×) and 0.024 kg
same,Animal body weight,"[2]; IP 1 mg/kg, Day 5, individual animals, 1 mg/kg",0.025 kg and 0.023 kg and 0.024 kg
same,Animal body weight,"[2]; IP 1 mg/kg, Day 6, individual animals, 1 mg/kg",0.025 kg and 0.024 kg (2×)
same,Animal body weight,"[2]; IP 1 mg/kg, Day 7, individual animals, 1 mg/kg",0.025 kg and 0.023 kg and 0.024 kg
same,Animal body weight,"[2]; IP 10 mg/kg, Day 0, individual animals, 10 mg/kg",0.023 kg (2×) and 0.024 kg
same,Animal body weight,"[2]; IP 10 mg/kg, Day 1, individual animals, 10 mg/kg",0.022 kg (2×) and 0.023 kg
same,Animal body weight,"[2]; IP 10 mg/kg, Day 2, individual animals, 10 mg/kg",0.022 kg and 0.023 kg (2×)
same,Animal body weight,"[2]; IP 10 mg/kg, Day 3, individual animals, 10 mg/kg",0.022 kg (2×) and 0.023 kg
same,Animal body weight,"[2]; IP 10 mg/kg, Day 4, individual animals",0.023 kg
same,Animal body weight,"[2]; IP 10 mg/kg, Day 5, individual animals",0.023 kg
same,Animal body weight,"[2]; IP 10 mg/kg, Day 6, individual animals, 10 mg/kg",0.022 kg (2×) and 0.023 kg
same,Animal body weight,"[2]; IP 10 mg/kg, Day 7, individual animals, 10 mg/kg",0.023 kg (2×) and 0.022 kg
"Clc1ccc2[nH]cc(Sc3ccc(Br)cc3)c2c1 [Compound 174C, 3-((4-bromophenyl)thio)-5-chloro-1H-indole]",SI (selectivity index),[1],16.3
"Fc1ccc2[nH]cc(Sc3ccc(Br)cc3)c2c1 [Compound 174E, 3-((4-bromophenyl)thio)-5-fluoro-1H-indole]",SI (selectivity index),[1],14.2
"Brc1ccc2[nH]cc(Sc3ccccc3Br)c2c1 [Compound 174I, 5-bromo-3-((2-bromophenyl)thio)-1H-indole]",cell wall synthesis inhibition (glucosamine incorporation),[3],substantial cell wall synthesis inhibition
same,mechanism of action from transcriptomic and metabolic studies,[4],branched chain amino acid biosynthesis inhibition
"Clc1ccc(Sc2c[nH]c3ccc(Br)cc23)cc1 [Compound 174J, 5-bromo-3-((4-chlorophenyl)thio)-1H-indole]",SI (selectivity index),[1],16.2
"Nc1ccccc1Sc1c[nH]c2ccc(Br)cc12 [Compound 174M, 2-((5-bromo-1H-indol-3-yl)thio)aniline]",Cytotoxicity HepaRG EC50,HepaRG cells,85 mg/L
same,MIC with 200 μg/mL 2-ketobutyrate,[5]; with 200 μg/mL 2-ketobutyrate,0.781
same,MIC with 800 μg/mL 2-ketobutyrate,[5]; with 800 μg/mL 2-ketobutyrate,less than 0.39
same,mechanism of action from transcriptomic and metabolic studies,[4],branched chain amino acid biosynthesis inhibition
"Fc1ccc(Sc2c[nH]c3ccc(Br)cc23)cc1 [Compound 174P, 5-bromo-3-((4-fluorophenyl)thio)-1H-indole]",SI (selectivity index),[1],24.6
"Clc1ccc(Sc2c[nH]c3ccc(Br)cc23)c(Cl)c1 [Compound 174V, 5-bromo-3-((2,4-dichlorophenyl)thio)-1H-indole]",SI (selectivity index),[1],19.8
"Oc1ccccc1Sc1c[nH]c2ccc(C(F)(F)F)cc12 [Compound 177A, 2-((5-(trifluoromethyl)-1H-indol-3-yl)thio)phenol]",SI (selectivity index),[1],61.8
"Oc1ccc(Sc2c[nH]c3ccc(C(F)(F)F)cc23)cc1 [Compound 177B, 4-((5-(trifluoromethyl)-1H-indol-3-yl)thio)phenol]",SI (selectivity index),[1],17.8
"Nc1ccccc1Sc1c[nH]c2ccc(C(F)(F)F)cc12 [Compound 177C, 2-((5-(trifluoromethyl)-1H-indol-3-yl)thio)aniline]",SI (selectivity index),[1],123.6
"Fc1ccccc1Sc1c[nH]c2ccc(C(F)(F)F)cc12 [Compound 177D, 3-((2-fluorophenyl)thio)-5-(trifluoromethyl)-1H-indole]",SI (selectivity index),[1],17.4
"Fc1ccc2[nH]cc(Sc3ccccc3Br)c2c1 [Compound 177E, 3-((2-bromophenyl)thio)-5-fluoro-1H-indole]",SI (selectivity index),[1],20.3
"FC(F)(F)c1ccc2[nH]cc(Sc3ccccc3C(F)(F)F)c2c1 [Compound 177F, 5-(trifluoromethyl)-3-((2-(trifluoromethyl)phenyl)thio)-1H-indole]",SI (selectivity index),[1],19.1
"CCc1ccccc1Sc1c[nH]c2ccc(C(F)(F)F)cc12 [Compound 177G, 3-((2-ethylphenyl)thio)-5-(trifluoromethyl)-1H-indole]",SI (selectivity index),[1],18.9
"OCc1[nH]c2ccc(Br)cc2c1Sc1ccccc1Br [Compound 177H, (5-bromo-3-((2-bromophenyl)thio)-1H-indol-2-yl)methanol]",SI (selectivity index),[1],20.4
"CCc1ccccc1Sc1c(CO)[nH]c2ccc(C(F)(F)F)cc12 [Compound 177I, (3-((2-ethylphenyl)thio)-5-(trifluoromethyl)-1H-indol-2-yl)methanol]",SI (selectivity index),[1],10.0
"CN[C@H](CC(C)C)C(=O)N[C@H]1C(=O)N[C@@H](CC(N)=O)C(=O)N[C@H]2C(=O)N[C@H]3C(=O)N[C@H](C(=O)N[C@H](C(=O)O)c4cc(O)cc(O)c4-c4cc3ccc4O)[C@H](O)c3ccc(c(Cl)c3)Oc3cc2cc(c3O[C@@H]2O[C@H](CO)[C@@H](O)[C@H](O)[C@H]2O[C@H]2C[C@](C)(N)[C@H](O)[C@H](C)O2)Oc2ccc(cc2Cl)[C@H]1O [vancomycin, reference compound]",cell wall synthesis inhibition (glucosamine incorporation),[3],increasingly inhibits glucosamine from incorporating into a cell wall
